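Dose response: 5 concentrations. Exposure: 48 h. Format: 96-well plates. Endpoint: linear interpolation; highest concentration if not reached. At the GI50, growth is halved.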 The source made the active and inactive calls. Cut-off read from the data, not from the text of the source: active = GI50 up to about 1.1 µM and inactive = higher.
How the values were obtained:
Experiment in all cases: DTP human tumour cell line panel, 48 h
SK-OV-3 = system: SK-OV-3
SK-MEL-2 = system: SK-MEL-2
UACC-257 = system: UACC-257
SNB-19 = system: SNB-19
OVCAR-4 = system: OVCAR-4
RPMI-8226 = system: RPMI-8226
HT-29 = system: HT-29
NCI-H460 = system: NCI-H460
COLO 205 = system: COLO 205
SW-620 = system: SW-620
786-0 = system: 786-0
MOLT-4 = system: MOLT-4
LOX IMVI = system: LOX IMVI
OVCAR-5 = system: OVCAR-5
M14 = system: M14
HCT-15 = system: HCT-15
NCI/ADR-RES = system: NCI/ADR-RES
HCC 2998 = system: HCC 2998
EKVX = system: EKVX
CCRF-CEM = system: CCRF-CEM

Row | Structure (SMILES) | GI50 (SK-OV-3) | GI50 (SK-MEL-2) | GI50 (UACC-257) | GI50 (SNB-19) | GI50 (OVCAR-4) | GI50 (RPMI-8226) | GI50 (HT-29) | GI50 (NCI-H460) | GI50 (COLO 205) | GI50 (SW-620) | GI50 (786-0) | GI50 (MOLT-4) | GI50 (LOX IMVI) | GI50 (OVCAR-5) | GI50 (M14) | GI50 (HCT-15) [µM] | GI50 (NCI/ADR-RES) | GI50 (HCC 2998) | GI50 (EKVX) | GI50 (CCRF-CEM)
1 | CC12CCC(Br)C(C)(C)C1CC=C1C(=O)OCC1O2 (centres undefined) | 9.06 µM (inactive) | 13.6 µM (inactive) | 12.4 µM (inactive) | 18.2 µM (inactive) | 16 µM (inactive) | 2.73 µM (inactive) | 19 µM (inactive) | 14.6 µM (inactive) | 18.2 µM (inactive) | 16.7 µM (inactive) | 19.4 µM (inactive) | 7.05 µM (inactive) | 9.57 µM (inactive) | 18.7 µM (inactive) | 20.5 µM (inactive) | 12.1 | 20.4 µM (inactive) | 12.1 µM (inactive) | 16.5 µM (inactive) | –
2 | Cc1ccc(C2=Nc3c(N)nc(N)nc3NC(c3ccccc3)C2)cc1 (centres undefined) | 12.5 µM (inactive) | – | 13.5 µM (inactive) | 14.2 µM (inactive) | 14.2 µM (inactive) | 4.84 µM (inactive) | 4.05 µM (inactive) | – | – | 4.02 µM (inactive) | 13.2 µM (inactive) | 7.43 µM (inactive) | 10.1 µM (inactive) | 18 µM (inactive) | 6.4 µM (inactive) | 3.1 | 3.97 µM (inactive) | 4.44 µM (inactive) | 12.4 µM (inactive) | 7.83 µM (inactive)
3 | O=C1OCC/C1=C/c1ccc(/N=N/c2c(O)ccc3ccccc23)cc1 | 28.3 µM (inactive) | 26.7 µM (inactive) | 20.7 µM (inactive) | 39.4 µM (inactive) | 18.6 µM (inactive) | 21.6 µM (inactive) | 19.4 µM (inactive) | 19.7 µM (inactive) | 25.1 µM (inactive) | 19.2 µM (inactive) | 19.1 µM (inactive) | 19.5 µM (inactive) | – | 22.3 µM (inactive) | 27.5 µM (inactive) | 24.9 | 20.1 µM (inactive) | 20.9 µM (inactive) | 19.1 µM (inactive) | 22.9 µM (inactive)
4 | Nc1ccc(Oc2ccc(C3(c4ccc(Oc5ccc(N)cc5)cc4)C4CC5C6CC7CC5C3C(C7)C6C4)cc2)cc1 | – | > 100 µM (inactive) | > 58.6 µM (inactive) | 37.4 µM (inactive) | 18.8 µM (inactive) | 14.8 µM (inactive) | 0.774 µM (active) | 21.1 µM (inactive) | 42.4 µM (inactive) | 97.3 µM (inactive) | 9.66 µM (inactive) | 6.08 µM (inactive) | 6.01 µM (inactive) | > 100 µM (inactive) | 3.87 µM (inactive) | 20.1 | > 100 µM (inactive) | 1.07 µM (active) | 27 µM (inactive) | 2.62 µM (inactive)
